Assay results from patent US6503943B1, “Platinum complex, its preparation and therapeutic application” (priority 1998, dated 2003).
“And” between values parts separate entries of the source, which are not always exact repeats. Identical values can stand only once.

Experiments:
leucaemia L1210 [1] = experiment: Antitumor effect at animals with leucaemia L1210, single administration (Example 4); assay type: in vivo, mice DBA2; settings: for Survival (in % of control) / Survival time, Geom. mean: 1st day
leucaemia L1210 [2] = experiment: Antitumor effect at animals with leucaemia L1210, intermitent administration 3x (Example 5); assay type: in vivo, mice DBA2; settings: 1st, 5th and 9th day
leucaemia L1210 [3] = experiment: Antitumor effect at animals with leucaemia L1210, continual versus intermitent regimen (Example 6); assay type: in vivo, mice DBA2; settings: for Survival (in % of control) / Survival time, Geom. mean: 1st day
leucaemia L1210 [4] = experiment: Antitumor effect at animals with leucaemia L1210, continual regimen (Example 7); assay type: in vivo, mice DBA2
Gardner lymphosarcoma = experiment: Antitumor effect at animals with solid form of Gardner lymphosarcoma (Example 8); assay type: in vivo, mice C3H; settings: 5th day, tumors weighed 14th day
[5] = system: mammal adenocarcinoma MC2111; experiment: Antitumor effect at animals with solid form of mammal adenocarcinoma MC2111 (Example 9); assay type: in vivo, mice DBA1; settings: for Tumor mass (%) of control / Tumor mass, Arithm. mean: 5th day, tumor size 14th day, mass from regression
[6] = system: ascitic form of Ehrlich tumor (ATE); experiment: Antitumor effect at animals with ascitic form of Ehrlich tumor (ATE) (Example 10); assay type: in vivo, mice ICR; settings: for Survival (in % of control) / Survival time, Geom. mean / Tumor mass (%) of control / Tumor mass, Arithm. mean: 1st day; for Tumor mass (%) of control / Tumor mass, Arithm. mean: dissection 10th day
[7] = system: ascitic form of Ehrlich tumor (ATE); experiment: Antitumor effect at animals with ascitic form of Ehrlich tumor (ATE) (Example 11);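 for all read-outs here: half of each dose group killed on day 10, tumor mass taken as animal mass lost on ascites aspiration, ascitocrit by microhematocrit centrifuge, rest followed daily for survival versus reference group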; settings: for Survival (in % of control) / Survival time, Geom. mean / Total ascitocrit (%) of control / Total ascitocrit (mass of cell fraction of a tumor), Arithm. mean / Tumor mass (%) of control / Tumor mass, Arithm. mean: 1st day; for Total ascitocrit (%) of control / Total ascitocrit (mass of cell fraction of a tumor), Arithm. mean / Tumor mass (%) of control / Tumor mass, Arithm. mean: dissection 10th day
Experimental: After termination of application, one half of animals in each dosage group was destroyed at 10th day after inoculation in ether narcosis, the ascits were sucked out after laparotomy and the mass of a tumor at each of the animals was determined from the difference of mass before and after sucking out the ascit. Ascitocrit in ascitic liquor of single animals was determined on microhematocrit centrifuge in heparinized capillary tubes of 75 mm length. The value of “total ascitocrit”corresponding to a mass of cells in ascitic liquor has been determined from percentage of ascitocrit and mass of the tumor. Remaining animals were left for monitoring the survival time. In these animals, the survival time was monitored on daily basis. The dependence of the survival time value on the applied dose was evaluated in comparison with the reference group.
The single estimated time points as biological responses were evaluated by a test of equivalence of two mean values (Student's t-test). Geometric mean was calculated from single values of survival time, arithmetic means were calculated from single values of tumor mass and total ascitocrit. Difference between mean values was evaluated by a test of equivalence of two mean values (Student's t-test) under presumption of normal probability distribution of mass values as well as of total ascitocrit values and of logarithmic/normal distribution of temporal values, all under presumption of possible unknown disseminations. Those diferences in mean values, whose values of a test criterium exceeded the critical value at the 5% and 1% significance level were evaluated as statistically significant and highly statistically significant, respectively.
The optimum dosage has been calculated from values of survival time according to the proportional risk model of Cox (Carter et al., 1982). Parameters of Weinbull distribution and logarithmic transformation of introductory data were used for estimation of a basic and modified survival function from experimental data.

## N.N.[Cl][Pt][Cl] [Platidiam, cis-diammin-dichloroplatinum(II) complex]
Leucaemia L1210 [1]; 2.5 mg/kg s.c. 1x
  Survival (in % of control): 112%
  Survival time, Geom. mean: 14.2 days
Leucaemia L1210 [1]; 5 mg/kg s.c. 1x
  Survival (in % of control): >132%
  Survival time, Geom. mean: 16.7 days
Leucaemia L1210 [1]; 5 mg/kg s.c., single, not statistically significant
  Increase of mean value of survival time against the control: 32%
Leucaemia L1210 [1]; 10 mg/kg s.c. 1x
  Survival (in % of control): 48%
  Survival time, Geom. mean: 6.1 days
Leucaemia L1210 [2]; 1 mg/kg/day s.c. 3x
  Survival (in % of control): 178%
  Survival time, Geom. mean: 28.0 days
Leucaemia L1210 [2]; 2 mg/kg/day s.c. 3x
  Survival (in % of control): 168%
  Survival time, Geom. mean: 26.3 days
Leucaemia L1210 [2]; 4 mg/kg/day s.c. 3x
  Survival (in % of control): 106%
  Survival time, Geom. mean: 16.6 days
Leucaemia L1210 [3]; 2 mg/kg s.c. 1x
  Survival (in % of control): 155%
  Survival time, Geom. mean: 17.9 days
Leucaemia L1210 [3]; 4 mg/kg s.c. 1x
  Survival (in % of control): 174%
  Survival time, Geom. mean: 20.2 days
Leucaemia L1210 [3]; 8 mg/kg s.c. 1x
  Survival (in % of control): 204%
  Survival time, Geom. mean: 23.7 days
Leucaemia L1210 [3]; LA-12 6 mg/kg p.o.×9, Platidiam 8 and 4 mg/kg s.c.×1, LA-2 any of the dosage groups
  Evaluation of antitumor effect (survival time versus control), in words: antitumor effective
Leucaemia L1210 [4]; 4 mg/kg s.c. 1x, 1st day
  LTS - Long Term Survivors (amount of surviving animals in a group): 5/10
  Survival (in % of control): >223%
  Survival time, Geom. mean: 50.2 days
Leucaemia L1210 [4]; 4 mg/kg s.c.×1
  Increase of survival time value in comparison with the control group: 123%
Gardner lymphosarcoma; 2 mg/kg s.c. 1x
  Tumor mass (%) of control: 83%
  Tumor mass, Arithm. mean: 5.19 g
Gardner lymphosarcoma; 4 mg/kg s.c. 1x
  Tumor mass (%) of control: 59%
  Tumor mass, Arithm. mean: 3.68 g
Gardner lymphosarcoma; 8 mg/kg s.c. 1x
  Tumor mass (%) of control: 26%
  Tumor mass, Arithm. mean: 1.64 g
[5]; 4 mg/kg s.c. 1x
  Tumor mass (%) of control: 76%
  Tumor mass, Arithm. mean: 3.53 g
[5]; 8 mg/kg s.c. 1x
  Tumor mass (%) of control: 69%
  Tumor mass, Arithm. mean: 3.20 g
[5]; mouse, in vivo
  LTS - Long Term Survivors; the amount of animals destroyed at 120th day: 1/10
  Survival (in % of control): >162 2) % and >158 1) %
  Survival time, Geom. mean: 35.1 days and 34.3 days
[5]; p.o.×9 12, 6, 3 mg/kg/day, Platidiam 8 and 4 mg/kg s.c. once
  Evaluation of antitumor effect, in words: antitumor effective
[6]; 2 mg/kg s.c. 1x
  Survival (in % of control): 120%
  Survival time, Geom. mean: 13.8 days
  Tumor mass (%) of control: 115%
  Tumor mass, Arithm. mean: 3.06 g
[6]; 4 mg/kg s.c. 1x
  Survival (in % of control): 190%
  Survival time, Geom. mean: 21.8 days
  Tumor mass (%) of control: 101%
  Tumor mass, Arithm. mean: 2.68 g
[6]; 8 mg/kg s.c. 1x
  Survival (in % of control): 184%
  Survival time, Geom. mean: 21.0 days
  Tumor mass (%) of control: 82%
  Tumor mass, Arithm. mean: 2.16 g
[6]; Tab. 7-2
  Significance of mean survival time increase in comparison with untreated control (p≦0.01), in words: atatistically highly significant
[7]; 2 mg/kg s.c. 1x
  Survival (in % of control): 128%
  Survival time, Geom. mean: 11.4 days
  Total ascitocrit (%) of control: 115%
  Total ascitocrit (mass of cell fraction of a tumor), Arithm. mean: 0.79 g
  Tumor mass (%) of control: 72%
  Tumor mass, Arithm. mean: 2.83 g
[7]; 4 mg/kg s.c. 1x
  Survival (in % of control): 197%
  Survival time, Geom. mean: 17.5 days
  Total ascitocrit (%) of control: 116%
  Total ascitocrit (mass of cell fraction of a tumor), Arithm. mean: 0.80 g
  Tumor mass (%) of control: 90%
  Tumor mass, Arithm. mean: 3.53 g
[7]; 8 mg/kg s.c. 1x
  Survival (in % of control): 208%
  Survival time, Geom. mean: 18.5 days
  Total ascitocrit (%) of control: 100%
  Total ascitocrit (mass of cell fraction of a tumor), Arithm. mean: 0.68 g
  Tumor mass (%) of control: 60%
  Tumor mass, Arithm. mean: 2.36 g
[7]; p.o.×9, Platidiam 8 and 4 mg/kg s.c.×1, Tab. 8.1
  Evaluation of antitumor effect (survival time versus control), in words: antitumor effective
